The text below walks through data of ChEMBL document CHEMBL1148718, “Structure-activity relationship study on N-(1,2,3,4-tetrahydronaphthalen-1-yl)-4-aryl-1-piperazinehexanamides, a class of 5-HT7 receptor agents. 2” (J Med Chem, 2007).

Test [1] has as its target T1, 5-hydroxytryptamine receptor 1A (Homo sapiens, UniProt P08908).
T1 sequence (P08908 whole entry): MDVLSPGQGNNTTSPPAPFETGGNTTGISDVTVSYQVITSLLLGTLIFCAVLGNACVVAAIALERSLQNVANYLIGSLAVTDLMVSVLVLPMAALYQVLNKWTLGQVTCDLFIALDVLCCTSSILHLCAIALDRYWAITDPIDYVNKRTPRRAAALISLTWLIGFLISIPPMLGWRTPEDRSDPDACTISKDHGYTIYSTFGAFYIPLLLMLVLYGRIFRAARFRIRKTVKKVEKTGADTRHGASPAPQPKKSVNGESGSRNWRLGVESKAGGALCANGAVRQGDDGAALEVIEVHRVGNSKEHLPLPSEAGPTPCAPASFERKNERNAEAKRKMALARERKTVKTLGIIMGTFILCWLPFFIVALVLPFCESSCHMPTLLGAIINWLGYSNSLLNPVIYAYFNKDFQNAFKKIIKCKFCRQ
Kind of test: Displacement of [3H]8-OH-DPAT from human recombinant 5HT1A receptor expressed in HEK293 cells. Type of test: cell-based. (In a radioligand displacement assay an active substance lowers the binding of a labelled ligand.)

For test [2], the target named is 5-hydroxytryptamine receptor 7 (Rattus norvegicus, UniProt P32305). As to the kind of experiment: Displacement of [3H]LSD from rat recombinant 5HT7 receptor expressed in HEK293 cells. The test is classed as cell-based.
Sequence of 5-hydroxytryptamine receptor 7 (Rattus norvegicus, UniProt P32305) (P32305 whole entry): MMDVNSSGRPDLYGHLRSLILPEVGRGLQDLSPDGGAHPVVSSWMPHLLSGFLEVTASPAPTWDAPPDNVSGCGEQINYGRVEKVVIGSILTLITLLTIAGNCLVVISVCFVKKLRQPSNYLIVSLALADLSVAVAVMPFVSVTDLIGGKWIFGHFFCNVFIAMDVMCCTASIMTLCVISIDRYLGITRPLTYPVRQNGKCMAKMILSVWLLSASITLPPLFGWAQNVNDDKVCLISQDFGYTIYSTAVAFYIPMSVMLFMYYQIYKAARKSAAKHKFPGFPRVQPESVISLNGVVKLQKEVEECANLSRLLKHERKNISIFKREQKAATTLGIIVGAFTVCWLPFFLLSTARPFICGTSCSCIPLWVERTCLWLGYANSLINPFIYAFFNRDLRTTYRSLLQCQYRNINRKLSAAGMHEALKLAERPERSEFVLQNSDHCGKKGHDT
Test [3] concerns the target 5-hydroxytryptamine receptor 2A (Rattus norvegicus, UniProt P14842). As to the kind of experiment: Displacement of [3H]ketanserin from 5HT2A receptor in Sprague-Dawley cortex membrane. The test is classed as cell membranes.
The target in test [4] is T2, D(2) dopamine receptor (Homo sapiens, UniProt P14416). Kind of test: Displacement of [3H]spiroperidol from human recombinant Dopamine D2 long receptor.
T2 sequence (P14416 whole entry): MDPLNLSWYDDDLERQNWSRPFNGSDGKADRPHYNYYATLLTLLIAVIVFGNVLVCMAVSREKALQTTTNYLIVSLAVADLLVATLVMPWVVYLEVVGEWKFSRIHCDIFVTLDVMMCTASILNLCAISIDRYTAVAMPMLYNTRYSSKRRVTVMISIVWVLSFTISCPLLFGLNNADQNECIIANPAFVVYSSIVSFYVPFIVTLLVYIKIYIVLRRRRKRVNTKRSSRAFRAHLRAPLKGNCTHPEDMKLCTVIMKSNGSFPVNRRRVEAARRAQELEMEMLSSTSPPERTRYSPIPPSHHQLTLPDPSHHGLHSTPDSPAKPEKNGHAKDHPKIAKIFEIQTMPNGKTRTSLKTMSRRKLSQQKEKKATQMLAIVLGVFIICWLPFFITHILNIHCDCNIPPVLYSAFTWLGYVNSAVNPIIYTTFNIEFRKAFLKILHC
Test [5] concerns the target T2, D(2) dopamine receptor. Kind of test: Displacement of [3H]spiroperidol from human recombinant Dopamine D2 long receptor […].
The target of test [6] is 5-hydroxytryptamine receptor 2A (Rattus norvegicus) (UniProt P14842). As to the kind of experiment: Displacement of [3H]ketanserin from 5HT2A receptor in Sprague-Dawley cortex membrane at >4000 uM. The test is classed as cell membranes.
Sequence of 5-hydroxytryptamine receptor 2A (Rattus norvegicus) (P14842 whole entry): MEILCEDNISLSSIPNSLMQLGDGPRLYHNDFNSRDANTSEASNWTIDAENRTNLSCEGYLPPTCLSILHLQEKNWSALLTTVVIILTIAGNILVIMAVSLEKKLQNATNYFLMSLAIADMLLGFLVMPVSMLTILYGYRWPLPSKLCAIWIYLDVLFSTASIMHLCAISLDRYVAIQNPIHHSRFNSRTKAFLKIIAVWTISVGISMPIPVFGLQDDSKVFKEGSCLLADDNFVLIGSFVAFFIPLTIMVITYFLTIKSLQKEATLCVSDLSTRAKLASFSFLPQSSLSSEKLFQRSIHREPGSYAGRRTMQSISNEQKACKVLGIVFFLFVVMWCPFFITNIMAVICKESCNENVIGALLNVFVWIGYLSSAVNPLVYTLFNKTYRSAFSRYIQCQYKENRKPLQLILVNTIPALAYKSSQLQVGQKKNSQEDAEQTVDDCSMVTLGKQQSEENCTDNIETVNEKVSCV
Test [7] addresses 5-hydroxytryptamine receptor 7 (Cavia porcellus) (UniProt P50407). Kind of test: (§1) Agonist activity at 5HT7 receptor in guinea pig ileum assessed as relaxation of substance P-induced contraction. The test is classed as functional, tissue-based.
Test [8] concerns the target T3, 5-hydroxytryptamine receptor 7 (Cavia porcellus, UniProt P50407). The test is described as §1. The test is classed as functional, tissue-based.
The nature of test [9]: Selectivity for rat 5HT7 over human 5HT1A.
The target of test [10] is T3, 5-hydroxytryptamine receptor 7. Kind of test: Antagonist activity at 5HT7 receptor in guinea pig ileum assessed as effect on 3-(2-aminoethyl)-1H-indole-5-carboxamide mediated relaxation of substance P-induced contraction. The conditions noted are these: read-out: pA2 (converted). Type of test: functional, tissue-based.
The target is the same in test [11]. As to the kind of experiment: Antagonist activity at 5HT7 receptor in guinea pig ileum assessed as effect on 4-(2-dimethylaminophenyl)-N-(1,2,3,4-tetrahydronaphthalen-1-yl)-1-piperazine hexanamide mediated relaxation of substance P-induced contraction. The test is classed as functional, tissue-based. To be noted: read-out: pA2 (converted).
The target is the same in test [12]. As to the kind of experiment: Antagonist activity at 5HT7 receptor in guinea pig ileum assessed as effect on 4-(2-diphenyl)-N-(1,2,3,4-tetrahydronaphthalen-1-yl)-1-piperazine hexanamide mediated relaxation of substance P-induced contraction. Type of test: functional, tissue-based. To be noted: read-out: pA2 (converted).
The target is the same in test [13]. As to the kind of experiment: Antagonist activity at 5HT7 receptor in guinea pig ileum assessed as effect on 6-(4-phenylpiperazin-1-yl)-N-(1,2,3,4-tetrahydronaphthalen-1-yl)hexanamide mediated relaxation of substance P-induced contraction. The test is classed as functional, tissue-based. The conditions noted are these: read-out: pA2 (converted).
Test [14] has the same target. As to the kind of experiment: Antagonist activity at 5HT7 receptor in guinea pig ileum assessed as effect on 6-(4-(2-nitrophenyl)piperazin-1-yl)-N-(1,2,3,4-tetrahydronaphthalen-1-yl)hexanamide mediated relaxation of substance P-induced contraction. To be noted: read-out: pA2 (converted). Type of test: functional, tissue-based.
Test [15] has the same target. Kind of test: Antagonist activity at 5HT7 receptor in guinea pig ileum assessed as effect on 6-(4-(2-chlorophenyl)piperazine-1-yl)-N-(1,2,3,4-tetrahydronaphthalen-1-yl)hexanamide mediated relaxation of substance P-induced contraction. Type of test: functional, tissue-based. The conditions noted are these: read-out: pA2 (converted).
Test [16] has the same target. As to the kind of experiment: Antagonist activity at 5HT7 receptor in guinea pig ileum assessed as effect on 4-[2-(1-methylethyl)phenyl]-N-(1,2,3,4-tetrahydronaphthalen-1-yl)-1-piperazine hexanamide mediated relaxation of substance P-induced contraction. The test is classed as functional, tissue-based. To be noted: read-out: pA2 (converted).
A short description of test [17]: Ratio of Ki for human Dopamine D2L receptor to Ki for rat 5HT7 receptor.
Test [18] deals with T3, 5-hydroxytryptamine receptor 7. As to the kind of experiment: Antagonist activity at 5HT7 receptor in guinea pig ileum assessed as effect on substance P-induced contraction. Type of test: functional, tissue-based. The conditions noted are these: read-out: pA2 (converted).

Sequence of 5-hydroxytryptamine receptor 2A (P14842 whole entry): as above
T3 sequence (P50407 whole entry): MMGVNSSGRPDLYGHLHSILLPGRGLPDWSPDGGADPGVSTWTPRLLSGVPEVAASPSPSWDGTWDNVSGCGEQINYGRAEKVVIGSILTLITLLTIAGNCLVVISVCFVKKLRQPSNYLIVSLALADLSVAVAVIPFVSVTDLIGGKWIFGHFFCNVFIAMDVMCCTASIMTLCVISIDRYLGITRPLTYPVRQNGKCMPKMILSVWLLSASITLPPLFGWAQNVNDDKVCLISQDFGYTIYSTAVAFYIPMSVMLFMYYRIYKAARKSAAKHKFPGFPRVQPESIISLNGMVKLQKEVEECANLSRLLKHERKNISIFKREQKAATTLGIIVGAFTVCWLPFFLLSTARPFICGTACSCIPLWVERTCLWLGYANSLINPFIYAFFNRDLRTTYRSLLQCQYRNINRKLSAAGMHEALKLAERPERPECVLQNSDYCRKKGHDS
Sequence of 5-hydroxytryptamine receptor 7 (Cavia porcellus) (P50407 whole entry): as above

Regarding `CCCc1ccccc1N1CCN(CCCCCC(=O)NC2CCCc3ccccc32)CC1` (stereo not given), the Ki (as a rule, a measure of affinity in units of concentration, obtained from inhibition or displacement) came to 168 nM in [1], 49.6 nM in test [2], 3190 nM in [3] and 123 nM on D(2) dopamine receptor [4].

As to `Nc1ccccc1N1CCN(CCCCCC(=O)NC2CCCc3ccccc32)CC1` (stereo not given), the Ki is 415 nM in [1] and 8180 nM in [2].

As to `CC(=O)Nc1ccccc1N1CCN(CCCCCC(=O)NC2CCCc3ccccc32)CC1` (stereo not given), the inhibition (as a rule, the percentage by which the read-out fell short of the control) on D(2) dopamine receptor [5] came to 35%. Moreover, the Ki in [1] was 2500 nM; in test [2], 338 nM; in test [3], 3520 nM; at D(2) dopamine receptor [4], more than 1000 nM.

Regarding `O=C(CCCCCN1CCN(c2ccccc2F)CC1)NC1CCCc2ccccc21` (stereo not given), the inhibitory constant (Ki) in test [1] was found to be 29.2 nM; in test [2], 131 nM; in [3], 194 nM; on D(2) dopamine receptor [4], 292 nM.

`CS(=O)(=O)c1ccccc1N1CCN(CCCCCC(=O)NC2CCCc3ccccc32)CC1` (stereo not given): the inhibition is 32% on D(2) dopamine receptor [5] and 38% in test [6]. Besides, the Ki on D(2) dopamine receptor [4] is more than 1000 nM.

In the case of `CN(C)c1ccccc1N1CCN(CCCCCC(=O)NC2CCCc3ccccc32)CC1` (stereo not given), the inhibitory constant (Ki) was found to be 112 nM in [1], 0.9 nM in [2], 559 nM in test [3] and 32 nM on D(2) dopamine receptor [4]. In addition, the %max in test [7] turned out to be 100%. Besides, the EC50 (as a rule, the midpoint of the concentration-response curve) in test [8] worked out at 1170 nM. In addition, the Selectivity ratio in test [9] was more than 100.

Consider `O=C(CCCCCN1CCN(c2ccccc2[N+](=O)[O-])CC1)NC1CCCc2ccccc21` (stereo not given), for which, in test [7], the %max turned out to be 24%. The EC50 in test [8] is 10000 nM. For the same compound, the Ki at D(2) dopamine receptor [4] is 681 nM.

For the compound `CCCCc1ccccc1N1CCN(CCCCCC(=O)NC2CCCc3ccccc32)CC1` (stereo not given), the inhibitory constant (Ki) in test [1] came to 60 nM; in test [2], 2810 nM; on D(2) dopamine receptor [4], 60 nM.

`CCc1ccccc1N1CCN(CCCCCC(=O)NC2CCCc3ccccc32)CC1` (stereo not given): the Ki was 79.2 nM in test [1], 7.1 nM in test [2], 3370 nM in test [3] and 173 nM on D(2) dopamine receptor [4].

With `CC1CCN(CC[C@H]2CCCN2S(=O)(=O)c2cccc(O)c2)CC1`, the Kb was 33.1 nM in test [10]; 12.6 nM in [11]; 14.5 nM in test [12]; 7.94 nM in [13]; 6.31 nM in test [14]; 3.98 nM in test [15]. The Kb in test [16] is 8.91 nM.

Regarding `O=C(CCCCCN1CCN(c2ccccc2-c2ccccc2)CC1)NC1CCCc2ccccc21` (stereo not given), the Ratio Ki in test [17] turned out to be 1720. Besides, the inhibitory constant (Ki) is 60.9 nM in test [1], 0.13 nM in [2], 1460 nM in test [3] and 224 nM on D(2) dopamine receptor [4]. Also, in [7], the %max came out at 74%. In test [8], the 50% effective concentration (EC50) was determined as 1770 nM. In addition, in [9], the Selectivity ratio was more than 100.

Take `CC(C)c1ccccc1N1CCN(CCCCCC(=O)NC2CCCc3ccccc32)CC1` (stereo not given): the Ki worked out at 167 nM in test [1], 1.1 nM in test [2], 4820 nM in [3] and 15 nM at D(2) dopamine receptor [4]. In addition, the %max in test [7] was 83%. Further, the EC50 in test [8] came to 900 nM. Further, in test [9], the Selectivity ratio was more than 100.

Turning to `CSc1ccccc1N1CCN(CCCCCC(=O)NC2CCCc3ccccc32)CC1` (stereo not given), the Ki at D(2) dopamine receptor [4] stood at 7.3 nM.

Regarding `O=C(CCCCCN1CCN(c2cccc[n+]2[O-])CC1)NC1CCCc2ccccc21` (stereo not given), the values for the Ki in [1] and in [2] were 194 nM and 8030 nM, respectively.

Take `COc1ccccc1N1CCN(CCCCCC(=O)NC2CCCc3ccccc32)CC1` (stereo not given): the inhibitory constant (Ki) on D(2) dopamine receptor [4] came to 26.4 nM.

In the case of `Cc1ccccc1N1CCN(CCCCCC(=O)NC2CCCc3ccccc32)CC1` (stereo not given), on D(2) dopamine receptor [4], the inhibitory constant (Ki) was 143 nM.

Take `NCCc1c[nH]c2ccc(C(N)=O)cc12`: the Ki in test [2] is 0.5 nM. Also, in test [7], the %max worked out at 100%. Further, the 50% effective concentration (EC50) in [8] was found to be 630 nM.

On to `O=C(CCCCCN1CCN(c2ccccc2O)CC1)NC1CCCc2ccccc21` (stereo not given), for which, at D(2) dopamine receptor [4], the Ki worked out at 987 nM.

Consider `CC(=O)c1ccccc1N1CCN(CCCCCC(=O)NC2CCCc3ccccc32)CC1` (stereo not given), for which the Ki at D(2) dopamine receptor [4] stood at 68 nM.

As for `CS(=O)(=O)Nc1ccccc1N1CCN(CCCCCC(=O)NC2CCCc3ccccc32)CC1` (stereo not given), the inhibition at D(2) dopamine receptor [5] was determined as 28%. Besides, the Ki was 4250 nM in [2] and more than 1000 nM at D(2) dopamine receptor [4].

In the case of `CC(C)(C)c1ccccc1N1CCN(CCCCCC(=O)NC2CCCc3ccccc32)CC1` (stereo not given), on D(2) dopamine receptor [5], the inhibition amounted to 38%. The Ki in test [1] was 1200 nM; in test [2], 538 nM; at D(2) dopamine receptor [4], more than 1000 nM.

Take `O=C(CCCCCN1CCN(c2ccccn2)CC1)NC1CCCc2ccccc21` (stereo not given): the inhibition at D(2) dopamine receptor [5] was determined as 15%. The Ki in [1] was 36.4 nM; in test [2], 278 nM; in test [3], 535 nM; on D(2) dopamine receptor [4] it was more than 1000 nM.

As for `CNc1ccccc1N1CCN(CCCCCC(=O)NC2CCCc3ccccc32)CC1` (stereo not given), the inhibition constant Ki is 133 nM in test [1], 25.4 nM in [2], 1590 nM in test [3] and 107 nM at D(2) dopamine receptor [4]. The %max in test [7] amounted to 0%. Besides, the Kb in [18] was 20 nM.

Regarding `O=C(CCCCCN1CCN(c2ccccc2)CC1)NC1CCCc2ccccc21` (stereo not given), in test [7], the %max was 40%. Moreover, the concentration giving a half-maximal response (EC50) in test [8] amounted to 8000 nM. At D(2) dopamine receptor [4], the inhibition constant Ki worked out at 1000 nM.

Take `O=C(CCCCCN1CCN(c2ccccc2Cl)CC1)NC1CCCc2ccccc21` (stereo not given): the %max in [7] worked out at 13%. For the same compound, in [8], the concentration giving a half-maximal response (EC50) is 17000 nM. In addition, the inhibition constant Ki at D(2) dopamine receptor [4] stood at 51 nM.

With `NC(=O)c1ccccc1N1CCN(CCCCCC(=O)NC2CCCc3ccccc32)CC1` (stereo not given), the inhibition on D(2) dopamine receptor [5] came to 32%; in test [6] it was 9%. The inhibitory constant (Ki) on D(2) dopamine receptor [4] was more than 1000 nM.

Take `N#Cc1ccccc1N1CCN(CCCCCC(=O)NC2CCCc3ccccc32)CC1` (stereo not given): the inhibition constant Ki at D(2) dopamine receptor [4] came out at 265 nM.
